Test results reported in publication PMC9322189, “Development of a Personalized Tumor Neoantigen Based Vaccine Formulation (FRAME-001) for Use in a Phase II Trial for the Treatment of Advanced Non-Small Cell Lung Cancer” (Pharmaceutics, 2022).
Blank lines part the entries; values can stand above or below the sequence they belong to. No end group written: not given here.

Tests used:
Type in all cases: physicochemical
[1] = In-use stability of thawed aqueous peptide mixtures at room temperature, UPLC-MS; details: 4 h room temperature
[2] = Release testing and long-term (frozen) stability of aqueous peptide mixtures (143 µg/mL per peptide in PBS 10 mM pH 7.0), UPLC-MS
[3] = Filter experiment: peptide adsorption to the 0.22 µm sterilization filter, UPLC-MS
[4] = Freeze–thaw stability of model peptides, UPLC-MS; details: 150 µg/mL in PBS, two freeze–thaw cycles, fivefold on three consecutive days
Description: A UPLC-MS system was used for the development and validation of the stability-indicating analytical method. The apparatus, column, flow rate, mobile phase A, mobile phase B, mass acquisition, and sample run time were: UPLC UltiMate 3000 RSLC System (Thermo Fisher Scientific, Waltham, MA, USA) coupled to a Q Exactive Orbitrap Mass Spectrometers (Thermo Fisher Scientific, Waltham, MA, USA); Acquity UPLC Peptide CSH C18, 130 Å, 1.7 µm, 2.1 mm × 150 mm (Waters Corporation, Milford, MA, USA); 0.40 mL/min; 0.013% ammonium formate and 0.1% formic acid dissolved in ultrapure water (pH 2.8); 0.013% ammonium formate and 0.1% formic acid dissolved in a mixture of 0.495:0.495:0.10 methanol, acetonitrile, and ultrapure water; masses scanned from 300.0–1900.0 m/z; 15 min; respectively. The mobile phase gradient started at t0 min with 98% of mobile phase A that was gradually adjusted to 40% at t9 min. At t9.1 min, mobile phase A was set at 2% till t11.1 min. At t11.2 min, mobile phase A was set at 98% until the end of the sample run time.
For each peptide, six stock concentrations in the range of 5–225 µg/mL dissolved in PBS were made. The linear relationship of the calibration curves was investigated by regression analysis. The linear correlation coefficient (R^2), goodness of fit, and lack of fit were analyzed. For the accuracy and precision tests, samples of 50 µg/mL, 150 µg/mL, and 225 µg/mL were analyzed in triplicate on three consecutive days to determine the closeness of agreement of the measurements compared to the analyzed concentrations (accuracy % bias) and repeated experiments (relative standard deviations (RSD)). For the sensitivity test, peptide samples at 5 µg/mL were analyzed in triplicate on three consecutive days and the signal-to-noise (S/N) ratio was calculated from representative chromatograms. For the freeze–thaw experiment, samples at 150 µg/mL for each of the three peptides were prepared and analyzed in fivefold on three consecutive days after each sample was subjected to two freeze–thaw cycles before the analysis was initiated.

[5] = in FRM001-M1, t = 0 w, % area of peptide peak of sum of the six peptide peaks

Peptide peak ratio ([1]; in FRM001-M2, 2 w −25 °C): 8.9%
Peptide peak ratio ([1]; in FRM001-M2, 4 w −25 °C): 12.1%
Peptide peak ratio ([1]; in FRM001-M2, 8 w −25 °C): 12.1%
Peptide peak ratio ([1]; in FRM001-M2, 8 w −80 °C): 12.0%
Peptide peak ratio ([1]; in FRM001-M2, 12 w −25 °C): 13.7%
Peptide peak ratio ([1]; in FRM001-M2, 12 w −80 °C): 13.2%
Peptide peak ratio ([1]; in FRM001-M2, 16 w −25 °C): 10.2%
Peptide peak ratio ([1]; in FRM001-M2, 16 w −80 °C): 10.1%
Peptide peak ratio ([1]; in FRM001-M2, 32 w −25 °C): 9.6%
Peptide peak ratio ([1]; in FRM001-M2, 32 w −80 °C): 9.3%
Peptide peak ratio ([2]; in FRM001-M2, 2 w −25 °C): 7.2%
Peptide peak ratio ([2]; in FRM001-M2, 4 w −25 °C): 11.5%
Peptide peak ratio ([2]; in FRM001-M2, 8 w −25 °C): 11.0%
Peptide peak ratio ([2]; in FRM001-M2, 8 w −80 °C): 12.9%
Peptide peak ratio ([2]; in FRM001-M2, 12 w −25 °C): 14.2%
Peptide peak ratio ([2]; in FRM001-M2, 12 w −80 °C): 13.8%
Peptide peak ratio ([2]; in FRM001-M2, 16 w −25 °C): 9.6%
Peptide peak ratio ([2]; in FRM001-M2, 16 w −80 °C): 10.4%
Peptide peak ratio ([2]; in FRM001-M2, 32 w −25 °C): 10.8%
Peptide peak ratio ([2]; in FRM001-M2, 32 w −80 °C): 10.7%
Peptide peak ratio ([2]; in FRM001-M2, t = 0 w): 9.1%
Peak ratio ([3]; in FRM001M2, unfiltered sample): 6.1%
Sequence: NTDPSCSCVTPLDFNHCLKNREDNGLPMLS [FRM001P10, neoantigen peptide, in FRM001-M2]

Peptide peak ratio ([1]; in FRM001-M1, 2 w −25 °C): 15.2%
Peptide peak ratio ([1]; in FRM001-M1, 4 w −25 °C): 14.8%
Peptide peak ratio ([1]; in FRM001-M1, 8 w −25 °C): 15.3%
Peptide peak ratio ([1]; in FRM001-M1, 8 w −80 °C): 15.2%
Peptide peak ratio ([1]; in FRM001-M1, 12 w −25 °C): 15.3%
Peptide peak ratio ([1]; in FRM001-M1, 12 w −80 °C): 15.3%
Peptide peak ratio ([1]; in FRM001-M1, 16 w −25 °C): 15.5%
Peptide peak ratio ([1]; in FRM001-M1, 16 w −80 °C): 15.6%
Peptide peak ratio ([1]; in FRM001-M1, 32 w −25 °C): 14.1%
Peptide peak ratio ([1]; in FRM001-M1, 32 w −80 °C): 14.1%
Peptide peak ratio ([1]; in FRM001-M4, 2 w −25 °C): 14.7%
Peptide peak ratio ([1]; in FRM001-M4, 4 w −25 °C): 15.5%
Peptide peak ratio ([1]; in FRM001-M4, 8 w −25 °C): 15.3%
Peptide peak ratio ([1]; in FRM001-M4, 8 w −80 °C): 15.5%
Peptide peak ratio ([1]; in FRM001-M4, 12 w −25 °C): 14.8%
Peptide peak ratio ([1]; in FRM001-M4, 12 w −80 °C): 15.1%
Peptide peak ratio ([1]; in FRM001-M4, 16 w −25 °C): 12.4%
Peptide peak ratio ([1]; in FRM001-M4, 16 w −80 °C): 12.4%
Peptide peak ratio ([1]; in FRM001-M4, 32 w −25 °C): 13.1%
Peptide peak ratio ([1]; in FRM001-M4, 32 w −80 °C): 14.9%
Peptide peak ratio ([2]; in FRM001-M1, 2 w −25 °C): 15.0%
Peptide peak ratio ([2]; in FRM001-M1, 4 w −25 °C): 14.6%
Peptide peak ratio ([2]; in FRM001-M1, 8 w −25 °C): 15.2%
Peptide peak ratio ([2]; in FRM001-M1, 8 w −80 °C): 15.0%
Peptide peak ratio ([2]; in FRM001-M1, 12 w −25 °C): 15.9%
Peptide peak ratio ([2]; in FRM001-M1, 12 w −80 °C): 15.5%
Peptide peak ratio ([2]; in FRM001-M1, 16 w −25 °C): 15.4%
Peptide peak ratio ([2]; in FRM001-M1, 16 w −80 °C): 15.3%
Peptide peak ratio ([2]; in FRM001-M1, 32 w −25 °C): 13.4%
Peptide peak ratio ([2]; in FRM001-M1, 32 w −80 °C): 14.2%
Peptide peak ratio [2, 5]: 15.0%
Peptide peak ratio ([2]; in FRM001-M4, 2 w −25 °C): 14.5%
Peptide peak ratio ([2]; in FRM001-M4, 4 w −25 °C): 15.4%
Peptide peak ratio ([2]; in FRM001-M4, 8 w −25 °C): 15.1%
Peptide peak ratio ([2]; in FRM001-M4, 8 w −80 °C): 15.2%
Peptide peak ratio ([2]; in FRM001-M4, 12 w −25 °C): 15.1%
Peptide peak ratio ([2]; in FRM001-M4, 12 w −80 °C): 14.8%
Peptide peak ratio ([2]; in FRM001-M4, 16 w −25 °C): 12.5%
Peptide peak ratio ([2]; in FRM001-M4, 16 w −80 °C): 12.5%
Peptide peak ratio ([2]; in FRM001-M4, 32 w −25 °C): 12.9%
Peptide peak ratio ([2]; in FRM001-M4, 32 w −80 °C): 14.7%
Peptide peak ratio ([2]; in FRM001-M4, t = 0 w): 14.4%
Peak ratio ([3]; in FRM001M1, unfiltered sample): 14.8%
Peak ratio ([3]; in FRM001M4, unfiltered sample): 14.9%
Sequence: GCHLFSKRKCSQNKQSKRGKSRFYLSWRPL [FRM001P01, neoantigen peptide of lung tumor LUN021, in FRM001-M1 and FRM001-M4]

Freeze–thaw stability, average bias [4]: 8%
Sequence: SVTNTSLAHELWKVPLHLKTSLLRPAHLRD [FRM001P02]

Peptide peak ratio ([1]; in FRM001-M1, 2 w −25 °C): 11.3%
Peptide peak ratio ([1]; in FRM001-M1, 4 w −25 °C): 10.5%
Peptide peak ratio ([1]; in FRM001-M1, 8 w −25 °C): 10.8%
Peptide peak ratio ([1]; in FRM001-M1, 8 w −80 °C): 10.7%
Peptide peak ratio ([1]; in FRM001-M1, 12 w −25 °C): 11.2%
Peptide peak ratio ([1]; in FRM001-M1, 12 w −80 °C): 11.2%
Peptide peak ratio ([1]; in FRM001-M1, 16 w −25 °C): 10.5%
Peptide peak ratio ([1]; in FRM001-M1, 16 w −80 °C): 10.6%
Peptide peak ratio ([1]; in FRM001-M1, 32 w −25 °C): 10.9%
Peptide peak ratio ([1]; in FRM001-M1, 32 w −80 °C): 11.5%
Peptide peak ratio ([2]; in FRM001-M1, 2 w −25 °C): 11.2%
Peptide peak ratio ([2]; in FRM001-M1, 4 w −25 °C): 10.5%
Peptide peak ratio ([2]; in FRM001-M1, 8 w −25 °C): 10.9%
Peptide peak ratio ([2]; in FRM001-M1, 8 w −80 °C): 10.8%
Peptide peak ratio ([2]; in FRM001-M1, 12 w −25 °C): 11.9%
Peptide peak ratio ([2]; in FRM001-M1, 16 w −25 °C): 10.1%
Peptide peak ratio ([2]; in FRM001-M1, 16 w −80 °C): 10.7%
Peptide peak ratio ([2]; in FRM001-M1, 32 w −25 °C): 7.5%
Peptide peak ratio ([2]; in FRM001-M1, 32 w −80 °C): 11.8%
Peptide peak ratio [2, 5]: 10.8%
Peak ratio ([3]; in FRM001M1, filtered (0.22 µm Millex GV)): 10.8%
Peak ratio ([3]; in FRM001M1, unfiltered sample): 10.9%
Sequence: RHSPNGNGPRSQHHSLITTNTDPSCSCVT [FRM001P14, neoantigen peptide, in FRM001-M1]
